Results on 2 molecules are retold here after article PMC12621189, “Optimization of Selective and CNS Penetrant Alkyne-Based TREK Inhibitors: The Discovery and Characterization of ONO-9517601 (VU6022856) and ONO-7927846 (VU6024391)” (Journal of Medicinal Chemistry, 2025).

Converted amounts (≈) assume the structure as drawn.

Data set [1] is described as follows: IV/PO pharmacokinetic study, dog (beagle). Type of data set: in vivo. The note with it: for clearance: beagle, dog, iv, read-out: CLp; for clearance / Vd / half-life / Cmax: plasma; for clearance / CLp / Vd / half-life: iv 1 mg/kg (10), 0.5 mg/kg (11); for Vd: read-out: Vss; for half-life: read-out: elimination t1/2 (converted); for Cmax / F (%) po: po 1 mg/kg.

In data set [2] the target is HCN4 (Homo sapiens, UniProt Q9Y3Q4). Put plainly: MPC ion channel panel, HCN4. Type of data set: cell-based.
For data set [3], the system named is 5-strains, with and without S9. Nature of the data set: AMES assay (5-strains, with and without S9). The class given is cell-based.
Data set [4] addresses CYP 2C9 (Homo sapiens, UniProt P11712). Put plainly: CYP450 inhibition 2C9. Type of data set: in vitro ADME.
Data set [5] deals with MK-801 challenged mouse. Nature of the data set: MK-801 challenge novel object recognition (NOR), mouse. Type of data set: in vivo. Particulars: dosed orally, data not shown. Here is the method: Brain plasma concentration ratio (Kp) was calculated by dividing brain concentration by plasma concentration for each animal. Unbound brain to unbound plasma concentration ratio (Kp,uu) is calculated using the following formula: Kp,uu = (Brain ng/g x brain fu)/(plasma ng/ml x plasma fu).
In-vitro determination of blood-brain barrier penetration potential
Blood-brain barrier penetration was determined using MDR1-MDCK cell monolayers by Absorption Systems, following their protocol. In short, compounds were incubated at […] final concentration on one side of the cell monolayer for 2 hours. Compounds concentration on either side of the monolayer was determined by LC-MS/MS and apparent permeability and efflux ratio were determined as described in Wang, Q. et al.1
MK-801 induced novel object recognition test […]
Behavioral analysis: An observer blinds to treatment condition and novel object location used the video recordings to score the interaction of the animal with the two objects offline. The duration an animal explored each object was determined as the total time an animal is facing the object with its nose being ≦ 2 cm away from the object and some discernible whisker movement […]
Data Analysis: Statistical analyses can be performed using EXSUS ver 8.1 (CAC Croit Corporation). The vehicle and compound-treated groups were analyzed by one-way ANOVA followed by Dunnett's test. […]

A short description of data set [6]: Aqueous solubility. Type of data set: physicochemical.
Data set [7] is described as follows: Brain exposure at the MED (rat NOR). Type of data set: in vivo. The note with it: oral, 10 at 1 mg/kg, 11 at 0.3 mg/kg.
Data set [8] is described as follows: IV/PO pharmacokinetic study, rat (SD). Type of data set: in vivo. The note with it: for clearance / Vd / half-life / Cmax: Sprague-Dawley, plasma; for clearance / Vd / half-life: iv 1 mg/kg; for clearance: read-out: CLp; for Vd: read-out: Vss; for half-life: read-out: elimination t1/2 (converted); for Cmax / F (%) po: po 1 mg/kg.
Data set [9] is described as follows: Rat 4-day dosing general toxicity study. The note with it: at NOAEL doses, rat 4-day study.
Data set [10] in a line: Plasma protein binding, human (equilibrium dialysis). The note with it: pH 7.4, read-out: PPB human (converted). Type of data set: in vitro ADME. Here is the method:
Plasma protein binding and Brain homogenate binding: Determination of fraction unbound (f u) in plasma was conducted in vitro via equilibrium dialysis using HTDialysis (HTD) membrane plates. The top half of the plate was filled with 100 uL of Dubelco’s Phosphate Buffered Saline, pH 7.4 (DPBS). Compounds were diluted into plasma from each species (5 µM final concentration), which was aliquoted in triplicate to the ‘bottom half’ of the prepared HTD plate wells. The HTD plate was sealed and incubated for 6 hours at 37 °C. Following incubation, each well (both top and bottom halves) were transferred (20 µL) to the corresponding wells of a 96-shallow-well (V-bottom) plate. The daughter plates were then matrix-matched (DPBS side wells received equal volume of plasma, and plasma side wells received equal volume of DPBS), and extraction solution (120 µL; acetonitrile containing 50 nM carbamazepine as IS) was added to all wells of both daughter plates to precipitate protein and extract test article. The plates were then sealed and centrifuged (3500 rcf) for 10 minutes at ambient temperature. Supernatant (60 µL) from each well of the daughter plates was then transferred to the corresponding wells of new daughter plates (96-shallow-well, V bottom) containing water (Milli-Q, 60 µL/well), and the plates were sealed in preparation for LC-MS/MS analysis (see LC-MS/MS analysis method below).
The unbound fraction (f u) was calculated following the equation below, and mean values for each species were calculated from 3 replicates. […]
Fraction unbound for both plasma and brain samples was determined using Equation 4.
Equation 4 Determination of fraction unbound in plasma. […]
On the technique in general: Equilibrium dialysis compares concentrations on both sides of a semipermeable membrane.

Data set [11] deals with hERG (Homo sapiens, UniProt Q12809). Nature of the data set: Functional hERG inhibition. Type of data set: cell-based. For orientation: hERG is a cardiac potassium channel; its block is linked to QT prolongation.
hERG, sequence (Q12809 whole entry): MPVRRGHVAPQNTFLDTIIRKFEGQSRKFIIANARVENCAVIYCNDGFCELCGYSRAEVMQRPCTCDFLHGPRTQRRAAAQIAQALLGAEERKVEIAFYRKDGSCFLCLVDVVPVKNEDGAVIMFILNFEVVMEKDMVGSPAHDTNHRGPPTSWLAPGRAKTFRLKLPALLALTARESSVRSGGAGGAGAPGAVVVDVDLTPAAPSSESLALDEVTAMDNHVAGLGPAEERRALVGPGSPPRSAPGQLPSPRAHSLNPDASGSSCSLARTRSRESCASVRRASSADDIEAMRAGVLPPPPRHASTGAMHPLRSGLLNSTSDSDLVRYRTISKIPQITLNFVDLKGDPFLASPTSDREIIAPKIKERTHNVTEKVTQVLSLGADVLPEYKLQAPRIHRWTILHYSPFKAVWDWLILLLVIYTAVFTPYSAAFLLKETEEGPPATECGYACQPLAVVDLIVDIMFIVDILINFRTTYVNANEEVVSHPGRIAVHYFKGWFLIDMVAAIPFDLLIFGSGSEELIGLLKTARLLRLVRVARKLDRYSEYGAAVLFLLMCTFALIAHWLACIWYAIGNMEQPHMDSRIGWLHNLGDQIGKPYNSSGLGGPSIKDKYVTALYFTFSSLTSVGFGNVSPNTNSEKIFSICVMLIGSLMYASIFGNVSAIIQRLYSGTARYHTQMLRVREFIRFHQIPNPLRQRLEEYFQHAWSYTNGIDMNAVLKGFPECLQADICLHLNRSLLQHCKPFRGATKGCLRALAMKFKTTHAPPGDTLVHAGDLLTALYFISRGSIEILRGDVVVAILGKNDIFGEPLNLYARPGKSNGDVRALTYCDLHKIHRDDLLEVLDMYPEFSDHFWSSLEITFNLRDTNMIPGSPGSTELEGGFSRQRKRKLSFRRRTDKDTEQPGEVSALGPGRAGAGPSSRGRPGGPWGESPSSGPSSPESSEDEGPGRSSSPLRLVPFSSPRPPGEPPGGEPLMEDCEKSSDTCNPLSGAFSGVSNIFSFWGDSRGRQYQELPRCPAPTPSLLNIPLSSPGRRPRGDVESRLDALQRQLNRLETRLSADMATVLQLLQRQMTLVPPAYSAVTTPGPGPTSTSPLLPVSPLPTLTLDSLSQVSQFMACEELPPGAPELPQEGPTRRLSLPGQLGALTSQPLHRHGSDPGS

HCN4, sequence (Q9Y3Q4 whole entry): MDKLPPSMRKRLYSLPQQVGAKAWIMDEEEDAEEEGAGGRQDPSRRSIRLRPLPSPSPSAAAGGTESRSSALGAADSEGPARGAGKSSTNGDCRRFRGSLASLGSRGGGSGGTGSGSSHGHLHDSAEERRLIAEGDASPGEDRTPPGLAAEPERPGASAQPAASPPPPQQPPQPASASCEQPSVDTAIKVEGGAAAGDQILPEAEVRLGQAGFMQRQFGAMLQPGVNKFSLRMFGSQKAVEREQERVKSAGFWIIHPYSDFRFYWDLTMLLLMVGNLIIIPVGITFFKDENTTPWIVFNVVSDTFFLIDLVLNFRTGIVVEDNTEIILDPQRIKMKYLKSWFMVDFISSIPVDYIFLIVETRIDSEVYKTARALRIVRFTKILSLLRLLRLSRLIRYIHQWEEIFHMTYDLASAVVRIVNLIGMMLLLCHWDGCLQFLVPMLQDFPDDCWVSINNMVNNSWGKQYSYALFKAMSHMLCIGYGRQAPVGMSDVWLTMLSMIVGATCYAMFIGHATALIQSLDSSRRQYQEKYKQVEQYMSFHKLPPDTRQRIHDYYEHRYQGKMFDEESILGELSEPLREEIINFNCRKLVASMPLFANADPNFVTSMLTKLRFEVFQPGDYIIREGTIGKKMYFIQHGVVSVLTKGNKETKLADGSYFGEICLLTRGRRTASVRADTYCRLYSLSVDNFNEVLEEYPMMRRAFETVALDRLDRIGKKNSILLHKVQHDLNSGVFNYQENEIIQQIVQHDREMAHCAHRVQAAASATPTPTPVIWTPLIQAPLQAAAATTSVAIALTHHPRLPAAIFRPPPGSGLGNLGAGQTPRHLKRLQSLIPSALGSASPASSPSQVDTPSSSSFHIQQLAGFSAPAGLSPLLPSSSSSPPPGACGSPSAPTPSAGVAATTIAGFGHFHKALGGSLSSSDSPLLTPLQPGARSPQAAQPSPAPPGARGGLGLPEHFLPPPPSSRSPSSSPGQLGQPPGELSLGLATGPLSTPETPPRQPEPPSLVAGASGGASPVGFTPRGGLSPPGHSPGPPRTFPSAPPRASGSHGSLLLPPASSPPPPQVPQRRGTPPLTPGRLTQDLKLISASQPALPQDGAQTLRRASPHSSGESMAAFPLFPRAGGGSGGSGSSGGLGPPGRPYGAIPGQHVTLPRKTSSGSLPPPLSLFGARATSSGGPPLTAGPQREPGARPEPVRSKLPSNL
CYP 2C9, sequence (P11712 whole entry): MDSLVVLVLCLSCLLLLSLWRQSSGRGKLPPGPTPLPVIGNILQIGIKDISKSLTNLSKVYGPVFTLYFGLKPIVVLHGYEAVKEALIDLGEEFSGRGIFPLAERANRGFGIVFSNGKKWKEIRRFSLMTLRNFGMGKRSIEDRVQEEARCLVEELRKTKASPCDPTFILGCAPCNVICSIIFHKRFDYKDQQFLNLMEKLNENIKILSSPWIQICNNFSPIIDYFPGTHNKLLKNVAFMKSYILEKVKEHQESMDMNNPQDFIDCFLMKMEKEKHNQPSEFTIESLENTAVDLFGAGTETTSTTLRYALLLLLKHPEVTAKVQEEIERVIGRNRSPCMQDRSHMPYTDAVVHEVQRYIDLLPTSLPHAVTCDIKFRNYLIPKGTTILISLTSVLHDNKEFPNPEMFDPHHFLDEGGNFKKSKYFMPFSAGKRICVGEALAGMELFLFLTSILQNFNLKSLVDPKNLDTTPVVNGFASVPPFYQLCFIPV

In the case of `CC(=O)N1CCC(n2ncc(Cl)c2C(=O)Nc2ncc(C#Cc3ccccc3)cc2C)CC1` [Compound 10, 1-(1-Acetylpiperidin-4-yl)-4-chloro-N-(3-methyl-5-(phenylethynyl)pyridin-2-yl)-1H-pyrazole-5-carboxamide], in data set [1], the clearance was less than 2 mL/min/kg, the CLp worked out at 1.9 mL/min/kg, the Vd came out at 5.9 L/kg and the half-life is 56 h. In [1], the Cmax worked out at 315 ng/mL and the “F (%) po” value is 97%. Besides, the inhibition at 10 µM in data set [2] is no more than 50%. For the same molecule, the AMES entry in data set [3] is listed as “Negative”. In addition, the half-inhibitory concentration (IC50) in [4] was 6.1 µM. In data set [5], the “MED in the NOR cognition assay, MK-801 challenged mouse” value is given as 1 mg/kg. In data set [6], this molecule registered a solubility of 31 µM (≈ 14.3 µg/mL). In data set [7], the peak level (Cmax) was 218 nM. In data set [8], the clearance was 30 mL/min/kg, the Vd turned out to be 2.2 L/kg, the half-life is 1 h and the Cmax was 80 ng/mL. Moreover, the “F (%) po” value in data set [8] stood at 40%. Besides, the “safety margin based on the AUC” value in [9] was “more than 10 fold”. Moreover, the fraction unbound at 6 h, 5 µM in data set [10] was 0.01. This molecule returned an IC50 in data set [11] of 6.7 µM.

Regarding `CC(=O)N1CC[C@@H](n2ncc(Cl)c2C(=O)Nc2ncc(C#Cc3ccc(F)cc3)cc2C)[C@H](F)C1` [Compound 11, 1-((3R,4R)-1-Acetyl-3-fluoropiperidin-4-yl)-4-chloro-N-(5-((4-fluorophenyl)ethynyl)-3-methylpyridin-2-yl)-1H-pyrazole-5-carboxamide], in data set [1], the clearance was less than 2 mL/min/kg, the CLp amounted to 1.5 mL/min/kg, the Vd amounted to 7.1 L/kg and the half-life is 76 h. For the same molecule, in data set [1], the highest level (Cmax) was 263 ng/mL and the “F (%) po” value is given as 100%. Moreover, the inhibition at 10 µM in data set [2] is no more than 50%. In addition, the AMES entry in data set [3] is recorded as “Negative”. In data set [4], this molecule registered an IC50 of 4.9 µM. In data set [5], the “MED in the NOR cognition assay, MK-801 challenged mouse” value is given as 3 mg/kg. This molecule gave a solubility in [6] of 14 µM (≈ 6.97 µg/mL). The molecule further came in with a Cmax in data set [7] of 58 nM. In data set [8], the clearance was found to be 6.1 mL/min/kg, the Vd is 2.7 L/kg, the half-life is 5.5 h and the peak level (Cmax) was 162 ng/mL. Further, the “F (%) po” value in [8] came to 57%. For the same molecule, the “safety margin based on the AUC” value in data set [9] is “more than 10 fold”. In data set [10], the fraction unbound at 6 h, 5 µM was 0.048. The IC50 in data set [11] turned out to be 4.3 µM.

Broadly, the Cmax is the maximum level reached in the sampled fluid or tissue. By inhibition is commonly meant how much of the control response was suppressed. Read a low inhibition as a weak effect. What is called IC50 is the midpoint of a concentration-inhibition curve. The low end stands for higher potency, the high end for lower potency. The solubility is how much of the substance goes into solution per volume.
